Laboratory results reported in EPA's ToxValDB 9.5 (doi:10.2903/j.efsa.2014.3691).
“And” between values parts separate entries of the source, which are not always exact repeats. Equal entries are not always repeated.

Assays:
Anas platyrhynchos = details: short-term; oral; feed; mortality
Lepomis macrochirus = details: acute; duration: 96 hours; mortality
Apis mellifera = details: acute, duration: 48 hours, mortality
Tagia sp. = details: acute; duration: 14 days; mortality
Typhlodromus pyri = details: chronic/long-term; duration: 14 days; reproduction
Daphnia magna = details: chronic/long-term; duration: 22 days; reproduction

`CSC(=O)c1cccc2nnsc12` [Acibenzolar-S-methyl] was tested. Which LC50 (Anas platyrhynchos) did it give?
The LC50 was > 1540 mg/kg-day.

What about the LC50 (Lepomis macrochirus) of the same compound?
Its LC50 is 2.8 µg/mL and 1.6 µg/mL.

And the LD50 (Colinus virginianus; acute, oral, mortality)?
The LD50 was > 2000 mg/kg.

And the NOEC (Colinus virginianus; reproduction developmental, reproduction)?
Its NOEC is 61 mg/kg-day.

What about the LD50 (Rattus norvegicus; acute, oral, mortality) of the same compound?
Its LD50 is > 2000 mg/kg.

And the LOAEL (Rattus norvegicus; reproduction developmental, body weight)?
Its LOAEL is 10 mg/kg-day.

What about the NOAEL (Rattus norvegicus; reproduction developmental, oral, diet) of the same compound?
The NOAEL was 15 mg/kg-day.

And the LC50 (Oncorhynchus mykiss; acute, duration: 96 hours, mortality)?
The LC50 was 0.4 µg/mL and 1.1 µg/mL and 0.88 µg/mL.

What about the NOEC (Oncorhynchus mykiss; chronic/long-term, duration: 87 days) of the same compound?
Its NOEC is 26 µg/L.

And the LD50 (Apis mellifera; dermal)?
Its LD50 is > 100 µg/piece.

What about the LD50 (Apis mellifera; oral, unspecified) of the same compound?
The LD50 was 128 µg/piece.

What about the LC50 (Tagia sp.) of the same compound?
The LC50 was > 500 mg/kg.

What about the LEL (Typhlodromus pyri) of the same compound?
Its LEL is 30 g/ha.

What about the NOEC (Daphnia magna) of the same compound?
The NOEC was 44 µg/L.
